Data taken from patent publication US10173999B2, “Cyclic amine derivative and pharmaceutical use thereof” (Toray Industries, Inc., priority 2015, dated 2019).
Where a name gives a salt, the structure may show the parent alone.

What was measured:
[1] = test system: mouse partial sciatic nerve ligation model (neuropathic pain); experiment: Mouse partial sciatic nerve ligation model (Seltzer model), von Frey test; format: in vivo; settings: for persistence of analgesic action: oral administration, von Frey test at 1, 2, 3 h
Method: The mouse partial sciatic nerve ligation model was prepared in accordance with the method of Seltzer et al. (Malmberg et al., Pain, vol. 76, p. 215-222, 1998).
Slc: ICR mice (5 weeks old, male; from Japan SLC, Inc.) or Cr1: CD1 (ICR) mice (5 weeks old, male; from CHARLES RIVER LABORATORIES JAPAN, INC.) were anesthetized with sodium pentobarbital (70 mg/kg, intraperitoneal administration). The sciatic nerve at the femoral region of the right hind paw of each mouse was exposed and triply ligated tightly with silk suture of 8-0 (from NATSUME SEISAKUSHO CO., LTD.) under a stereomicroscope so that only half thickness of the nerve was trapped in the ligature. A group of mice thus treated was designated as a partial sciatic nerve ligation group. A group of mice whose sciatic nerve was just exposed and not ligated was designated as a sham surgery group.
Evaluation of neuropathic pain (hereinafter referred to as von Frey test) was performed as follows. Mice were conditioned for at least one hour in an acrylic cage for measurement (from NATSUME SEISAKUSHO CO. LTD. or SHINANO SEISAKUSHO) placed on a wire net. Thereafter, using a filament (from North Coast Medical or neuroscience) which exerted a pressure of 0.16 g, the mice were subjected to mechanical tactile stimulus by applying the filament to the plantar surface of the right hind paw 3 times, each for 3 seconds, with an interval of 3 seconds.
Seven days after the sciatic nerve ligation surgery, the compound of Example 1, 2, 3, 4, 5, 7, 8, 9, 10, 11, 12 or 13 (10 mg/kg for each of the compounds of Example 1, 2, 3, 4, 5, 8, 10 and 13, 0.01 to 1 mg/kg for the compound of Example 7, 0.01 to 10 mg/kg for the compound of Example 9; 0.001 to 0.1 mg/kg for the compound of Example 11; and 0.01 to 1 mg/kg for the compound of Example 12) or pregabalin as a positive control (10 mg/kg; Bosche Scientific) was dissolved in distilled water and orally administered to mice of the partial sciatic nerve ligation group. The groups of the mice in the partial sciatic nerve ligation mouse to which the compound of Example 1, 2, 3, 4, 5, 7, 8, 9, 10, 11, 12 or 13 was administered were designated as a “partial sciatic nerve ligation+the compound of Example 1” group; a “partial sciatic nerve ligation+the compound of Example 2” group; a “partial sciatic nerve ligation+the compound of Example 3” group; a “partial sciatic nerve ligation+the compound of Example 4” group; a “partial sciatic nerve ligation+the compound of Example 5” group; a “partial sciatic nerve ligation+the compound of Example 7” group; a “partial sciatic nerve ligation+the compound of Example 8” group; a “partial sciatic nerve ligation+the compound of Example 9” group; a “partial sciatic nerve ligation+the compound of Example 10” group; a “partial sciatic nerve ligation+the compound of Example 11” group; a “partial sciatic nerve ligation+the compound of Example 12” group; and a “partial sciatic nerve ligation+the compound of Example 13” group, respectively. The partial sciatic nerve ligation mouse group to which pregabalin was administered was designated as a “partial sciatic nerve ligation+pregabalin” group. A group wherein distilled water was orally administered to the mice of the partial sciatic nerve ligation group was designated as a “partial sciatic nerve ligation+distilled water” group. A group wherein distilled water was orally administered to the mice of the sham surgery group was designated as a “sham surgery+distilled water” group.
The von Frey test was carried out before oral administration of a test compound (pre-value), one hour, two hours, and three hours after the oral administration of a test compound.
Slc: ICR mice (5 weeks old, male; Japan SLC, Inc.) were anesthetized with sodium pentobarbital (70 mg/kg, intraperitoneal administration).

[2] = test system: fibromyalgia syndrome model rats; experiment: Rat fibromyalgia syndrome model (acidic saline), allodynia by von Frey filament; format: in vivo; settings: Day 7, pregabalin 10 mg/kg
Method: To prepare a fibromyalgia syndrome model rat (Sluka et al., Journal of Pharmacology and Experimental Therapeutics, vol. 302, p. 1146-1150, 2002; Nagakura et al., Pain, vol. 146, p. 26-33, 2009; Sluka et al., Pain, vol. 146, p. 3-4, 2009), which is generally employed widely in basic research for fibromyalgia syndrome, acidic saline (100 μL) adjusted to pH 4.0 was intramuscularly injected to the gastrocnemius muscle of the right hind paw of Crl: CD(SD) rat (6 to 7 weeks old, male; from CHARLES RIVER LABORATORIES JAPAN, INC.) under continuous inhalation anesthesia with isoflurane, twice (once in each day of Day 1 and Day 6, wherein Day 1 was the date on which the acidic saline was initially administrated). The rats thus prepared were raised in a breeding room controlled at an indoor temperature of 21 to 25° C. and an indoor humidity of 40 to 70% under the conditions of voluntary intake of food and water. In the same manner, rats to which physiological saline in place of acidic saline was intramuscularly injected were raised. The rats thus raised and not afflicted with fibromyalgia syndrome (“physiological saline+distilled water” group in FIG. 13) were also used in the experiment.
Seven days after the initial administration of acidic saline, allodynia in each rat was measured. […] Note that, measurement of allodynia was performed by use of a von Frey filament (from North Coast Medical) in accordance with the method described in a known literature (Chaplan et al., Journal of Neuroscience Methods, vol. 53, p. 55-63, 1994).
The fibromyalgia syndrome model rats thus obtained are divided into groups such that the 50% response threshold (mean value of the right hind paw and the left hind paw) of the individual groups became equal, and a test compound was administered to the fibromyalgia syndrome model rats on Day 7 after the initial administration of acidic saline.
The compound of Example 11 (0.1 to 10 mg/kg) was dissolved in distilled water and then orally administered to fibromyalgia syndrome model rats (“acidic saline+the compound of Example 11” in FIG. 13). Pregabalin serving as a positive control (10 mg/kg; from KEMPROTEC) was dissolved in distilled water and then orally administered (“acidic saline+pregabalin” in FIG. 13). As a control, distilled water was orally administered to fibromyalgia syndrome model rats (“acidic saline+distilled water” in FIG. 13). Furthermore, distilled water was orally administered to rats not afflicted with fibromyalgia syndrome (“physiological saline+distilled water” in FIG. 13). One hour and three hours after the oral administration, allodynia in individual rats was measured to evaluate an analgesic action. At this time, the 50% response threshold value in the measurement of allodynia before oral administration of the test compound on Day 7 after initial administration of acidic saline was defined as the pre-value.
To prepare a fibromyalgia syndrome model rat (Sluka et al., Journal of Pharmacology and Experimental Therapeutics, vol. 302, p. 1146-50, 2002; Nagakura et al., Pain, vol. 146, p. 26-33, 2009; Sluka et al., Pain, vol. 146, p. 3-4, 2009), which is generally employed widely in basic research for fibromyalgia syndrome, acidic saline (100 μL) adjusted to pH 4.0 was intramuscularly injected to the gastrocnemius muscle of the right hind paw of Slc: (SD) rats (6 to 7 weeks old, male; from Japan SLC, Inc.) under continuous inhalation anesthesia with isoflurane, twice (once in each of Day 1 and Day 6, wherein Day 1 was the initial administration date of the acidic saline). The rats thus prepared were raised in a breeding room controlled at an indoor temperature of 21 to 25° C. and an indoor humidity of 40 to 70% under the conditions of voluntary intake of food and water. In the same manner, rats to which physiological saline was intramuscularly injected in place of acidic saline were raised. […]

[3] = test system: human aortic smooth muscle cells (T/G HA-VSMG); experiment: Inducibility of cytoplasmic vacuolation in human aortic smooth muscle cells; format: cell-based; settings: Treatment time: 24 hours
Method: As a test compound, the compound of Example 3, 9, 11, 12 or compounds of Comparative Examples 2 to 6 were used. Canine aortic smooth muscle cells (Canine Aortic Smooth Muscle Cells, supply source: Toyobo Co., Ltd.) or human aortic smooth muscle cells of (T/G HA-VSMG, supply source: ATCC) were treated with a test compound (1.0 or 1.2 mmol/L in concentration) for 24 hours or 2 weeks. The cells were stained with HE, immunohistochemically for LAMP-2 or toluidine blue, and thereafter the presence or absence of cytoplasmic vacuolation was determined by using an optical microscope.

[4] = oral, 7 days after ligation, 1-3 h after dosing, 10 mg/kg (Ex 1,2,3,4,5,8,10,13, pregabalin), 0.01-1 mg/kg (Ex 7,12), 0.01-10 mg/kg (Ex 9), 0.001-0.1 mg/kg (Ex 11), vs ligation+distilled water, Welch or Shirley-Williams test

| Structure (SMILES) | analgesic action in von Frey test (total score) [1, 4] | also measured |
| --- | --- | --- |
| CCn1ccnc1C(O)CC(=O)N1CCC(N(C)C)CC1 (centres unmarked) [Example 8, 1-(4-(dimethylamino)piperidin-1-yl)-3-(1-ethyl-1H-imidazol-2-yl)-3-hydroxypropan-1-one] | statistically significant analgesic action | – |
| CCN(CC)C1CCN(C(=O)CC(O)c2nccn2C)CC1 (centres unmarked) [Example 2, 1-(4-(diethylamino)piperidin-1-yl)-3-hydroxy-3-(1-methyl-1H-imidazol-2-yl)propan-1-one] | statistically significant analgesic action | – |
| CCCCC(=O)OC(CC(=O)N1CCC(N(C)C)CC1)c1nccn1C (centres unmarked) [Example 13, 3-(4-(dimethylamino)piperidin-1-yl)-1-(1-methyl-1H-imidazol-2-yl)-3-oxopropylpentanoate] | statistically significant analgesic action | – |
| CC(C)C[C@H](CN)CC(=O)O [pregabalin] | – | analgesic action in von Frey test (total score) ([1]; mouse, in vivo): statistically significant analgesic action; allodynia (50% response threshold) vs acidic saline+distilled water group ([2]; Comparative Example 8: oral, Comparative Example 1 0.1 to 1 mg/kg, 1, 2 and 3 h after dosing): statistically significantly improved; allodynia (50% response threshold) vs acidic saline+distilled water group ([2]; Example 15: oral, Example 11 0.1 to 10 mg/kg, 1 and 3 h after dosing): statistically significantly improved |
| CN(C)C1CCN(C(=O)CC(O)c2nccn2C)CC1 (centres unmarked) [Example 7, 1-(4-(dimethylamino)piperidin-1-yl)-3-hydroxy-3-(1-methyl-1H-imidazol-2-yl)propan-1-one hydrochloride] | – | analgesic action in von Frey test (total score) ([1]; mouse, in vivo): statistically significant analgesic action; persistence of analgesic action [1]: persistence of analgesic action was confirmed |
| CN(C)C1CCN(C(=O)CC(O)c2nccn2C(F)F)CC1 (centres unmarked) [Example 10, 3-(1-(difluoromethyl)-1H-imidazol-2-yl)-1-(4-(dimethylamino)piperidin-1-yl)-3-hydroxypropan-1-one] | statistically significant analgesic action | – |
| CN(C)[C@@H]1CCN(C(=O)CC(O)c2nccn2C)C1 (stereo partly drawn) [Example 5, 1-((R)-3-(dimethylamino)pyrrolidin-1-yl)-3-hydroxy-3-(1-methyl-1H-imidazol-2-yl)propan-1-one] | statistically significant analgesic action | – |
| CN(C)[C@@H]1CCCN(C(=O)CC(O)c2nccn2C)C1 (some centres unmarked) [Example 4] | statistically significant analgesic action | – |
| CN1CCN(C2CCN(C(=O)CC(O)c3nccn3C)CC2)CC1 (centres unmarked) [Example 3, 3-hydroxy-3-(1-methyl-1H-imidazol-2-yl)-1-(4-(4-methylpiperazin-1-yl)piperidin-1-yl)propan-1-one] | statistically significant analgesic action | Inducibility of cytoplasmic vacuolation ([3]; Concentration: 1.2 mmol/L): Absent |
| CN(C)C1CCN(C(=O)CC(O)c2nccn2CC(F)(F)F)CC1 (centres unmarked) [Example 9, 1-(4-(dimethylamino)piperidin-1-yl)-3-hydroxy-3-(1-(2,2,2-trifluoroethyl)-1H-imidazol-2-yl)propan-1-one] | statistically significant analgesic action | persistence of analgesic action [1]: persistence of analgesic action was confirmed; Inducibility of cytoplasmic vacuolation ([3]; Concentration: 1.2 mmol/L): Absent |
| CCN(C)C1CCN(C(=O)CC(O)c2nccn2C)CC1 (centres unmarked) [Example 1, 1-(4-(ethylmethylamino)piperidin-1-yl)-3-hydroxy-3-(1-methyl-1H-imidazol-2-yl)propan-1-one] | statistically significant analgesic action | – |
| CC(=O)OC(CC(=O)N1CCC(N(C)C)CC1)c1nccn1C (centres unmarked) [Example 12, 3-(4-(dimethylamino)piperidin-1-yl)-1-(1-methyl-1H-imidazol-2-yl)-3-oxopropyl acetate] | statistically significant analgesic action | persistence of analgesic action [1]: persistence of analgesic action was confirmed; Inducibility of cytoplasmic vacuolation ([3]; Concentration: 1.0 mmol/L): Absent |
